“Also recorded” adds a separate entry of the source. Read-outs that look alike come from different tables or passages of the source. Where a SMILES comes first, the peptide text is derived from it. Bridges are numbered along the chain shown (N, C = ends). [ ]: non-standard residue; d: D form. pGlu = O=C1CC[C@@H](C(=O)O)N1
Columns and labels:
Assay type in all cases: cell-based
[1] = target: T1, α2β3γ2 GABAAR co-expressed with human UT (Homo sapiens, UniProt Q9UKP6); experiment: Patch-clamp of Iso-evoked current in CHO-UT co-expressing α2β3γ2 GABAAR (CHO-UT-GABAAR); conditions: 10^−8 M
T1 construct: expressed in transfected cells; host or cells: CHO-K1 stably expressing human UT (pIRES-neo2-UT), transiently nucleofected with GABAAR subunit cDNAs
T1 sequence (Q9UKP6 1-389): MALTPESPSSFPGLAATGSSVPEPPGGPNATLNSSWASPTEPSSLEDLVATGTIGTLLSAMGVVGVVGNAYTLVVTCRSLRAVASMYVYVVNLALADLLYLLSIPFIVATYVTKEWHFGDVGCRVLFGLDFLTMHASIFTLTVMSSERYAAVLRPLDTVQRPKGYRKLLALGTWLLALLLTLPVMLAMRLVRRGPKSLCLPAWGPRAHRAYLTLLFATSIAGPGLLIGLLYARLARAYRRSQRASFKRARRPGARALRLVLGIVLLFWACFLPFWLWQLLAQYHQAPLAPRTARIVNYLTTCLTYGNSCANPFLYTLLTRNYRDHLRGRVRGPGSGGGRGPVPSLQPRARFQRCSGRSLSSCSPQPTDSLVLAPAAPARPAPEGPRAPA
Protocol: (§1) CHO-K1 cell lines were obtained from American Type Culture Collection (Manassas, VA, USA). The human UT stable CHO (CHO-UT) was generously provided by Dr Christophe Dubessy (Inserm, Rouen University, France) et generated by CHO electroporation with 20 µg pIRES-neo2-UT DNA and 500 µg sterile sonicated salmon sperm DNA using the EasyJect One electroporation system (Equibio, Angleur, Belgium), followed by repetitive rounds of limiting dilution of cells in G-418 (400 µg/ml) for selection. Normal or stable CHO was grown in Ham-F12 medium supplemented with 10% FBS, 1% antibiotic-antimicotic solution and 2 mM glutamine, at 37°C in a humidified incubator with an atmosphere of 5% CO2. The stable CHO-UT medium was supplemented with the antibiotic G-418 (40 µg/ml).
(§2) For transfection, cells were trypsinized (0.05%), triturated in HamF-12 containing 10% FBS media, pelleted by centrifugation, resuspended in 100 µl solution V for nucleofection by an Amaxa Nucleofector Device (Köln, Germany; set to program U-016). Experiments were performed on normal CHO or on the stable CHO-UT cells and transiently transfected with combinations of cDNA encoding α2β3γ2, α2β3γ1, α2β1γ2, α2β3γ1, α2β3, β3γ2 (4 µg of cDNA total/transfection) GABAAR subunits. Cells were seeded on 14-mm poly-L-lysine-coated glass bottom insert dishes at 5×10^5 cells in a volume of 0.5 ml/dish. Cells were incubated overnight at 37°C in a humidified incubator (5% CO2) during 16 h before electrophysiological or immunocytochemical experiments.
(§3) GABAA receptor cDNA clones; α2, β1, β3, γ1 and γ2L engineered into the expression vector pCDM8 ([…], β1, γ2) or pcDNA/Amp (β3, γ1), were generously provided by Dr Wingrove (Merk Sharp and Dohme, Harlow, UK). To obtain β3 ^HA or γ2 ^HA epitope-tagged subunits, β3 or γ2 cDNA was amplified and the PCR product was subcloned using the SalI and NotI sites of pCMV-HA (Table S2) after digestion by the same restriction enzymes.
(§4) The conventional whole-cell configuration of the patch-clamp technique was used to study the GABA-gated currents in astrocytes and granule neurons, UT stably transfected CHO, CHO-UT, and CHO transiently transfected with diverse variants of UT and GABAAR subunits. After 24-h transfection, cell culture coverslips were placed in a small chamber (1.5 ml) on a stage of a right microscope DMLFSA (Leica, Heidelberg, Germany) and superfused continuously with the following bath solution containing (in mM): NaCl, 150; KCl, 2.5; HEPES, 5; CaCl2, 2; MgCl2, 1; glucose, 10 (pH 7.4 adjusted with NaOH). The patch pipettes were fabricated from 1.5 mm (outer diameter) soft glass tubes on a two-step vertical pipette puller (List-Medical, L/M-3P-A, Darmstadt, Germany). […] ATP and GTP were added to the internal solution used to fill electrode just before recording. All recordings were obtained at RT with cells voltage-clamped at −70 mV. The GABAA receptor agonist isoguvacine was prepared in the extracellular solution and was applied to cells by pneumatic pressure ejection. To prevent desenzitization, isoguvacine was more often ejected during 5 s at 2-min intervals. ATP, GTP, or guanosine 5′-O-(2-thiodiphosphate) (GDPβS) were administered through the patch pipette solution. We investigated the effect of competitive inhibition of GDP-GTP exchange by including GDPβS in the pipette solution (in addition to the normal amount of GTP). For GDPβS and the KIC, immediately following patch rupture, GABA current recordings were performed and the experiment was commenced after an equilibration period of 15 min.
All peptide ligands, inhibitors or allosteric modulators of the GABAA receptor function were applied via gravity through a plastic tubing positioned in the vicinity of the cell body in order to maintain a sustained perfusion. In these conditions, drugs could reach the cell of interest after 30 s of perfusion. Isoguvacine was applied focally by pneumatic pressure ejection from a micropipette.

human UT = target: T2, human UT (Homo sapiens, UniProt Q9UKP6); experiment: Fura-2 calcium imaging ([Ca^2+]c) in CHO-UT
T2 construct: expressed in transfected cells; host or cells: CHO-K1 electroporated with pIRES-neo2-UT, G-418 selected
T2 sequence (Q9UKP6 1-389): T1 sequence (Q9UKP6 1-389)
Protocol: as §1
For cell calcium imaging, Fura-2 AM (5 mM, Molecular Probe; Fisher, Cergy-Pontoise, France) was dissolved in 20% pluronic F-127 (w/v, DMSO) and then added to culture medium at final concentrations of 5 µM and 0.02%, with 2.5 mM probenecid (Sigma-Aldrich) respectively. Cells were incubated in the dye solution for 1 h in an humidified atmosphere (37°C, 5% CO2) and then rinsed in the standard extracellular solution used for patch-clamp experiments. For simultaneous measurements of intracellular calcium and chloride-evoked currents in CHO, patch-clamp electrodes were filled with an internal solution containing : KCl, 140; MgCl2, 4; Fura-2-pentoK, 0.25; HEPES, 10; ATP, 1; GTP, 0.1 (pH 7.4 adjusted with KOH). Fluorescence images were acquired with the right microscope DMLFSA (Leica) equipped with a digital CCD camera Coolsnap HQ (Photometrics, Roper scientific, Evry, France). A high-speed scanning polychromatic light source was used for alternate excitations at wavelenghts of 340 and 380 nm. The fluorescence intensities at both wavelenghts (F340 and F380) were mesured every 500 ms. Image acquisition and analysis were obtained with a MetaFluor/Metamorph Imaging System (Roper scientific). The ratio between the two images was proportional to the [Ca^2+]c in the cell under study. Before an experiment, the bath ground level of fluorescence (attributable to autofluorescence and camera noise) was determined and systematically substracted.

[2] = test system: α2β3γ2 GABAAR in the absence of UT; experiment: Patch-clamp of Iso-evoked current in CHO expressing α2β3γ2 GABAAR without UT; conditions: DMCM 10^−5 M; hUII and URP 10^−8 M; [Orn^5]-URP and palosuran 10^−6 M; Iso 10^−4 M, 2 s; n = 3–18
Protocol: as §2, §3
as §4, with “min. […]” for “min.”

[3] = target: T3, GABAAR in cerebellar astrocytes (UT co-expressed) (Rattus norvegicus, UniProt P49684); experiment: Whole-cell patch-clamp of isoguvacine (Iso)-evoked depolarization/chloride current in cerebellar astrocytes co-cultured with granule neurons; conditions: for inhibition at 0.1 µM: rUII 10^−7 M, 40 s, Iso 10^−4 M, mean ± SEM, n = 5
T3 construct: Astrocytes, recognized by strong GFAP staining show UT immunoreactivity; endogenous in cells; host or cells: primary rat (P7 Wistar) cerebellar astrocytes co-cultured with cerebellar granule neurons
T3 sequence (P49684 1-386): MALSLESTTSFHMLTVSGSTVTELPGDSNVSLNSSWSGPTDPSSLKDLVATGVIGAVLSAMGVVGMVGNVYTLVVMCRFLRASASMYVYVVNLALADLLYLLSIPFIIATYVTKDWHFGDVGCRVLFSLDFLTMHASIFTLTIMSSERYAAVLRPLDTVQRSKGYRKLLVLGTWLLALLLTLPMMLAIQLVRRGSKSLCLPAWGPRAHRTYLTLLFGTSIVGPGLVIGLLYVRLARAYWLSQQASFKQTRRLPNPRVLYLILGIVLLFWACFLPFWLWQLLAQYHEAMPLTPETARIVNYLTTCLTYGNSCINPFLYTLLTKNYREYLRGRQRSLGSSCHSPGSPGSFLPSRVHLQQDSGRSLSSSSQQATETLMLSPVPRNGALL
Protocol: Primary Cell Culture of astrocytes and astrocyte-neurone co-culture
Primary cultures of astrocytes were prepared as previously described. Briefly, cerebellum from 7-day-old (P7) Wistar rats were collected in DMEM/Ham-F12 (2∶1, v/v) culture medium supplemented with 2 mM glutamine, 1% insulin, 5 mM HEPES, 0.4% D(+)-glucose and 1% of the antibiotic-antimycotic solution. The tissues were disaggregated mechanically with a syringue equipped with a 1-mm gauge needle, and filtered through a 100-µm pore size mesh filter (Falcon, Becton Dickinson, Grenoble, France). Dissociated cells were resuspended in culture medium supplemented with 10% heat-inactivated FBS and seeded in 150-cm^2 culture flasks (Falcon) at a density of 20×10^6 cells/flask. Cells were incubated at 37°C in a humidified atmosphere (5% CO2) and the medium was changed twice a week. When cultures were confluent, the flasks were gently shaken on an orbital shaker at […] for 2 h. Dislodged cells were discarded and a second step of purification was performed at […] for 14–16 h. Remaining adhesive cells were collected by trypsination, centrifuged (800 g, 10 min) and plated in 150-cm^2 flasks. Suspended astrocytes were harvested and seeded in 24-well poly-L-lysine-coated plates. The purity of the cultures was previously assessed by counting the percentage of astrocytes immunostained with GFAP antibodies. The enriched cultures contained >99% astrocytes.
For astrocyte-neuron co-culture, granule cell cultures were prepared from cerebella of P7 Wistar rats as described previously. Isolated cells were plated on 14-mm culture dishes coated with poly-L-lysine (5 mM) at a density of 1.5×10^6 cells/dish and incubated at 37°C in a humidified atmosphere (5% CO2) for 1 to 10 days before use. Culture medium consisted of DMEM/Ham's F12 (75%/25%) supplemented with 10% FBS, 2 mM glutamine, 5 µg/ml insulin, 25 mM KCl and 1% of antibiotic-antimycotic solution. Co-cultures are obtained by seeding granule cells (1.5×10^6 cells/ml) on cerebellar astrocytes plated in 24-well plates after 12 hours. Co-cultures are maintained in the specific medium for neuron and incubated at 37°C in an humidified atmosphere (5% CO2) for several days.
as §4, with “min. […]” for “min.”

Compound	Inhibition of Iso-evoked current ([1]; Iso 10^−4 M, mean ± SEM, hUII n = 54, URP n = 12)	Persistence/reversibility of current inhibition during washout ([1]; Iso-evoked current)	Reversibility of [Ca^2+]c increase during washout (human UT; 10^−8 M)	Increase of the amplitude of baseline [Ca^2+]c (human UT; hUII and URP 10^−8 M, [Orn^5]-URP 10^−6 M, mean from 9 to 25 cells)	Effect on Iso-evoked current in the absence of UT [2]	EC50 ([3]; astrocytes, printed with a % sign before pM, read-out: EC50 for inhibition of the Iso-evoked current)	inhibition at 0.1 µM ([3]; co-cultured astrocytes, read-out: Inhibition of the amplitude of the Iso-evoked depolarization)	inhibition at 0.1 µM ([3]; voltage clamp −60 mV, read-out: Inhibition of the amplitude of the Iso-evoked chloride current)
URP: paralog urotensin II-related peptide sharing the fully conserved C-terminal cyclic CFWKYC core	22.9±3.5%	slightly recovered during washout; also recorded: triggers a reversible inhibition	totally recovered after 16-min washout; also recorded: recovered to the basal line level	341%	failed to affect the amplitude of the current	–	–	–
CCc1c(C(=O)OC)ncc2[nH]c3cc(OC)c(OC)cc3c12 [DMCM, methyl 6,7-dimethoxy-4-ethyl-β-carboline-3-carboxylate]	–	–	–	–	induced inhibition of the current in most tested cells	–	–	–
CC[C@H](C)[C@H](NC(=O)[C@@H]1CSSC[C@H](NC(=O)[C@H](CCC(=O)O)NC(=O)[C@@H]2CCCN2C(=O)[C@H](C)NC(=O)[C@@H](NC(=O)CNC(=O)[C@H](Cc2c[nH]cn2)NC(=O)[C@@H]2CCC(=O)N2)[C@@H](C)O)C(=O)N[C@@H](Cc2ccccc2)C(=O)N[C@@H](Cc2c[nH]c3ccccc23)C(=O)N[C@@H](CCCCN)C(=O)N[C@@H](Cc2ccc(O)cc2)C(=O)N1)C(=O)O [rUII] ([pGlu]HGTAPECFWKYCI-OH; disulfide 8-13)	–	–	–	–	–	43.6 ± 23.7 pM	24.2 ± 7.5%	33 ± 8%

Source: paper PMC3341351, “Down-Regulation of GABAA Receptor via Promiscuity with the Vasoactive Peptide Urotensin II Receptor. Potential Involvement in Astrocyte Plasticity” (PLoS ONE, 2012)
